These results are taken from BindingDB's records for doi:10.7270/Q28P5XZM (Nmmlsc, 2011).

By EC50 is commonly meant the concentration giving half of the maximal effect. The low end stands for greater potency, the high end for weaker potency.

The experiment has as its target T1, General amino acid permease AGP1 (Saccharomyces cerevisiae (strain ATCC 204508 / S288c), UniProt P25376).
T1 sequence (P25376 whole entry): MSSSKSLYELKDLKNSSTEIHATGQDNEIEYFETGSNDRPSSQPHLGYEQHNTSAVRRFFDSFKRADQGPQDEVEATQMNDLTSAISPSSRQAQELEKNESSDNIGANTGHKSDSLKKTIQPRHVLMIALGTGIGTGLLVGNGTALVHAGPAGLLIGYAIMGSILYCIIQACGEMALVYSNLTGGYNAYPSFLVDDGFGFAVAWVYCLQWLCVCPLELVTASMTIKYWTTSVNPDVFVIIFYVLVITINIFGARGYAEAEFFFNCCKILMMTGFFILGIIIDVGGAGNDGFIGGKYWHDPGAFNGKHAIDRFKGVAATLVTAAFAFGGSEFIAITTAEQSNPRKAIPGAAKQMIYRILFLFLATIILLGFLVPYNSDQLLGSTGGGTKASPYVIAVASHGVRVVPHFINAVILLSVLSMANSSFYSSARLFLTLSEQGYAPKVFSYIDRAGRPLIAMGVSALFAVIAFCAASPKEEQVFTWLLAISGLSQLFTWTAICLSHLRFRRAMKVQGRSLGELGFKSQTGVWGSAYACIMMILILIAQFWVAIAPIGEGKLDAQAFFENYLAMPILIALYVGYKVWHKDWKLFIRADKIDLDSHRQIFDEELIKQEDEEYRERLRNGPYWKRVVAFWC
Description: AGP1-GFP level modulation, analog dose series – cell-based, flow cytometry, S. cerevisiae, cherry pick 3, SAR follow-up (AID 488790). To be noted: inactive by the depositor's call. (In general: Flow cytometry measures light scatter and fluorescence of single cells or particles in a stream.)

The molecule `Cc1ccc(C(=O)Nc2nc(-c3ccccn3)cs2)o1` [5-methyl-N-[4-(2-pyridinyl)-2-thiazolyl]-2-furancarboxamide] registered an EC50 of 775 µM.
For the molecule `Nc1ncnc(Nc2cc(Cl)cc(Cl)c2)c1[N+](=O)[O-]` [MLS000581561], a half-maximal effect (EC50) was put at 76.4 µM.
